The subject of assay [1] is C-myc quadruplex (DNA, G4) TGGGGAGGGTGGGGAGGGTGGGGAAGG
Put plainly: fluorescence titration. To be noted: K+ 100 mM (KCl); 10 mM Tris-HCl, 0.1 mM EDTA, pH 7.5.

Assay [2] has the same test system. Description: fluorescent intercalator displacement titration. Particulars: K+ 100 mM (KCl); 10 mM Tris-HCl, 0.1 mM EDTA, pH 7.5; thiazole orange displaced.
Assay [3] shares this test system. Description: circular dichroism titration. To be noted: K+ 100 mM (KCl); 10 mM Tris-HCl, 0.1 mM EDTA, pH 7.5, 20 °C; 10 µM strand; induced CD only above ratio two. In general terms: Circular dichroism is the unequal absorption of left and right circularly polarised light.
Assay [4] has as its system TFO C-myc duplex (Table 2: C-myc duplex) (DNA, duplex) AGGGAGGGAGGTAAGAAAAAGGG/CCCTTTTTCTTACCTCCCTCCCT
Put plainly: FID screen (thiazole orange displacement, single concentration). To be noted: K+ 100 mM (KCl); 10 mM Tris-HCl, 0.1 mM EDTA, pH 7.5, 21–23 °C; 0.25 µM duplex, 0.50 µM TO, ligand 1:1.

The test system of assay [5] is C-myc quadruplex (DNA, G4) TGGGGAGGGTGGGGAGGGTGGGGAAGG
Description: UV-Vis absorption (hypochromism, 19 nm bathochromic shift). To be noted: K+ 100 mM (KCl); 10 mM Tris-HCl, 0.1 mM EDTA, pH 7.5, 22–24 °C; 5 µM DNA, 5 µM ligand.

This passage reports binding and DC50 results from publication PMC6270413 (2013).

Structures are written as SMILES.

As for `CN1C(=Cc2cc[n+](C)c3ccccc23)Sc2ccccc21`, in assay [1], the binding entry was “yes”.
Compound `NC[C@@H]1O[C@H](O[C@H]2[C@@H](O)[C@H](O[C@@H]3[C@@H](O)[C@H](N)C[C@H](N)[C@H]3O[C@H]3O[C@H](CN)[C@@H](O)[C@H](O)[C@H]3N)O[C@@H]2CO)[C@H](N)[C@@H](O)[C@@H]1O` showed a DC50 in assay [2] greater than 5.5 µM.
In the case of `CN1CCN(c2ccc3nc(-c4ccc5nc(-c6ccc(O)cc6)[nH]c5c4)[nH]c3c2)CC1`, the binding result in assay [3], in assay [4] and in assay [5] was “yes” in each case. The compound also yielded a DC50 in assay [2] of 1.58 ± 0.01 µM.
